From patent US20110152089A1, “HERBICIDAL COMPOSITIONS COMPRISING FLUFENACET” (Bayer CropScience AG, priority 2009, published 2011)

Assays:
HORVS [1] = experiment: Different sowing depths, PE application, crop selectivity, greenhouse (Table 7); format: in vivo, Hordeum vulgare, summer barley; details: for activity HORVS 5 mm (crop plant): sowing depth 5 mm; for activity HORVS 20 mm (crop plant): sowing depth 20 mm
Description: (§1) In the standard design of the test, seeds of various broad-leaved weed and weed grass biotypes (origins) were sown in a 8-13 cm diameter pot filled with natural soil of a standard field soil (loamy silt; non-sterile) and covered with a covering soil layer of about 1 cm. The pots were then cultivated in a greenhouse (12-16 h of light, temperature day 20-22° C., night 15-18° C.) until the time of application. The pots were treated on a laboratory track sprayer with spray liquors comprising the compositions according to the invention, mixtures of the prior art or components used individually. Application of the active compounds or active compound combinations formulated as WG, WP, EC or otherwise was carried out at the appropriate growth stages of the plants. The application rate for the spray application was 100-600 l of water/ha. After the treatment, the plants were returned to the greenhouses.
(§2) About 3 weeks after the application, the soil action or/and foliar action was assessed visually according to a scale of 0-100% in comparison to an untreated comparative group: 0%=no noticeable effect compared to the untreated comparative group; 100%=full effect compared to the untreated comparative group.
(§3) (notes: the term “seeds” also includes vegetative propagation forms such as, for example, rhizome pieces; abbreviations used: h light=hours of illumination, g of AS/ha=gram of active substance per hectare, l/ha=liter per hectare, S=sensitive, R=resistant) • 1. Pre-emergence action against weeds: seeds of various broad-leaved weed and weed grass biotypes (origins) were sown in a 8-13 cm diameter pot filled with natural soil of a standard field soil (loamy silt; non-sterile) and covered with a covering soil layer of about 1 cm. The pots were then cultivated in a greenhouse (12-16 h of light, temperature day 20-22° C., night 15-18° C.) until the time of application. The pots were treated at the BBCH stage 00-10 of the seeds/plants on a laboratory track sprayer with spray liquors comprising the compositions according to the invention, mixtures or components used individually, as WG, WP, EC or other formulations. The application rate for the spray application was 100-600 l of water/ha. After the treatment, the plants were returned to the greenhouses and, when required, treated with fertilizer and watered. • 2. Post-emergence action against weeds: seeds of various broad-leaved weed and weed grass biotypes (origins) were sown in a 8-13 cm diameter pot filled with natural soil of a standard field soil (loamy silt; non-sterile) and covered with a covering soil layer of about 1 cm. The pots were then cultivated in a greenhouse (12-16 h of light, temperature day 20-22° C., night 15-18° C.) until the time of application. The pots were treated at various BBCH stages between 11-25 of the seeds/plants, i.e. generally between two to three weeks after the start of the cultivation, on a laboratory track sprayer with spray liquors comprising the compositions according to the invention, mixtures or components used individually, as WG, WP, EC or other formulations. The application rate for the spray application was 100-600 l of water/ha. After the treatment, the plants were returned to the greenhouses and, when required, treated with fertilizer and watered. • 3. Pre-emergence action against weeds with and without incorporation of active compound: seeds of various broad-leaved weed and weed grass biotypes (origins) were sown in a 8-13 cm diameter pot filled with natural soil of a standard field soil (loamy silt; non-sterile). […]

POAAN = experiment: PO application, greenhouse (Table 2); format: in vivo, Poa annua; details: g of AS/ha: (A) 120, (B) 1200, (C) 140, (A)+(B)+(C) 120 + 1200 + 140, visual, about 3 weeks after application
Description: as §1, §2
(§4) (notes: the term “seeds” also includes vegetative propagation forms such as, for example, rhizome pieces; abbreviations used: h light=hours of illumination, g of AS/ha=gram of active substance per hectare, l/ha=liter per hectare, S=sensitive, R=resistant) • 1. Pre-emergence action against weeds: seeds of various broad-leaved weed and weed grass biotypes (origins) were sown in a 8-13 cm diameter pot filled with natural soil of a standard field soil (loamy silt; non-sterile) and covered with a covering soil layer of about 1 cm. The pots were then cultivated in a greenhouse (12-16 h of light, temperature day 20-22° C., night 15-18° C.) until the time of application. […]

MATCH = experiment: PE application with different irrigation, greenhouse (Table 4); format: in vivo, Matricaria chamomilla; details: g of AS/ha: (A) 90, (B) 300, (C) 140, (A)+(B)+(C) 90 + 300 + 140
Description: as §1, §2, §3

HORVS [2] = experiment: Activity with different soil types, crop selectivity, greenhouse (Table 5); format: in vivo, Hordeum vulgare, summer barley; details: g of AS/ha: (A) 90, (B) 300, (C) 140, (A)+(B)+(C) 90 + 300 + 140; for activity HORVS IU soil (crop plant): IU soil (loamy silt standard field soil); for activity HORVS IU/EC73 soil (crop plant): IU/EC73 soil (heavy soil, higher organic substance)
Description: as §1, §2, §3

HORVS [3] = experiment: PE application with different irrigation, crop selectivity, greenhouse (Table 4); format: in vivo, Hordeum vulgare, summer barley; details: g of AS/ha: (A) 90, (B) 300, (C) 140, (A)+(B)+(C) 90 + 300 + 140
Description: as §1, §2, §3

HORVS [4] = experiment: PO application, crop selectivity, greenhouse (Table 2); format: in vivo, Hordeum vulgare, summer barley; details: g of AS/ha: (A) 120, (B) 1200, (C) 140, (A)+(B)+(C) 120 + 1200 + 140, visual, about 3 weeks after application
Description: as §1, §2, §4

HORVS [5] = experiment: Different soil pH, PE application, crop selectivity, greenhouse (Table 8); format: in vivo, Hordeum vulgare, summer barley; details: for activity HORVS pH 7.4 (crop plant): soil pH 7.4, g of AS/ha: (A) 90, (B) 300, (C) 140, (A)+(B)+(C) 90 + 300 + 140; for activity HORVS pH 8.4 (crop plant): soil pH 8.4, g of AS/ha: (A) 90, (B) 300, (C) 140, (A)+(B)+(C) 90 + 300 + 140
Description: as §1, §2, §3

[6] = g of AS/ha: (A) 90, (B) 300, (C) 140, (A)+(B)+(C) 90 + 300 + 140
[7] = g of AS/ha: (A) 90, (B) 300, (C) 140, (A)+(B)+(C) 90 + 300 + 140, listed as trifluralin

| SMILES | activity HORVS 5 mm (crop plant) (HORVS [1]; [6]) [%] | activity HORVS 20 mm (crop plant) (HORVS [1]; [6]) [%] | activity POAAN (POAAN) [%] | activity MATCH (MATCH; irrigation from above) [%] | activity MATCH (MATCH; irrigation from below) [%] | activity HORVS IU soil (crop plant) (HORVS [2]) [%] | activity HORVS IU/EC73 soil (crop plant) (HORVS [2]) [%] | activity HORVS (crop plant) (HORVS [3]; irrigation from above) [%] | activity HORVS (crop plant) (HORVS [3]; irrigation from below) [%] | activity HORVS (crop plant) (HORVS [4]) [%] | activity HORVS pH 7.4 (crop plant) (HORVS [5]) [%] | activity HORVS pH 8.4 (crop plant) (HORVS [5]) [%] | activity HORVS 5 mm (crop plant) (HORVS [1]; [7]) [%] | activity HORVS 20 mm (crop plant) (HORVS [1]; [7]) [%] |
| --- | --- | --- | --- | --- | --- | --- | --- | --- | --- | --- | --- | --- | --- | --- |
| CSc1nnc(C(C)(C)C)c(=O)n1N [(C) metribuzin, 4-amino-6-(1,1-dimethyl-ethyl)-3-(methylthio)-1,2,4-triazin-5-(4H)-one] | 70 | 30 | 79 | 0 | 60 | 0 | 0 | 80 | 10 | 70 | 40 | 50 |  |  |
| CCCN(CCC)c1c([N+](=O)[O-])cc(C(F)(F)F)cc1[N+](=O)[O-] [(B) trifluralin, 2,6-dinitro-N,N-dipropyl-4-(trifluoromethyl)benzenamine] | 25 | 20 | 40 | 0 | 40 | 0 | 0 | 90 | 60 | 20 | 20 | 10 | 70 | 30 |
